Reference: publication PMC10426190 (Breast Cancer Research : BCR, 2023)

System: E2-induced (ER target) genes in MCF7
Assay: Gene expression analysis by RNA-sequencing in MCF7 with E2 stimulation
Assay type: cell-based, human
Conditions: MCF7; 1 nM E2 ± 1 μM compound, 24 h
Experimental: MCF7 were cultured in hormone deprivation media (with 10% charcoal-stripped FBS) for at least 3 days before assay. Trypsinized cells were seeded in a 12-well plate, stimulated with 1 nM β-estradiol (E2), and treated with/without 1 μM compounds for 24 h. Total RNA was extracted using the TRIzol reagent according to the manufacturer’s protocol. RNA purity and quantification were evaluated using the NanoDrop 2000 spectrophotometer (Thermo Scientific, USA). RNA integrity was assessed using the Agilent 2100 Bioanalyzer (Agilent Technologies, Santa Clara, CA, USA). Then the libraries were constructed using TruSeq Stranded mRNA LT Sample Prep Kit (Illumina, San Diego, CA, USA) according to the manufacturer’s instructions. The transcriptome sequencing and analysis were conducted by OE Biotech Co., Ltd. (Shanghai, China). The libraries were sequenced on an Illumina HiSeq X Ten platform and 150 bp paired-end reads were generated. […] Raw data (raw reads) of FASTq format were firstly processed using Trimmomatic and the low-quality reads were removed to obtain the clean reads. […] The clean reads were mapped to the human genome (GRCh38) using HISAT2 [27]. FPKM [28] of each gene was calculated using Cufflinks, and the read counts of each gene were obtained by HTSeqcount. Differential expression analysis was performed using the DESeq (2012) R package.
MCF7 with hormone-deprived pre-treatment were administrated ER ligands or not present with 1 nM E2 stimulation for 24 h incubation in a 12-well plate. Total mRNA was isolated from treated cells and sequenced on an Illumina HiSeq X Ten platform. FPKM of each gene was calculated using Cufflinks and Differential expression genes analysis by using the DESeq (2012) R package. […] T47D EFM-19 and HCC1500 cells were grown in RPMI media supplemented with 10% charcoal-stripped FBS for 14 days and then treated with ER antagonist (1 μM) or DMSO in the presence E2 (1nM) stimulation for 24 h before RNA isolation and gene expression analysis as described in methods. […] The uteruses were harvested 24 h after the final doses and stained by toluidine blue. Endometrial height was assessed from the basement membrane to the luminal border (scale bar in green lines: 200 μm), Arrows indicate the uterine epithelium (e).

Compound: C[C@]12CC[C@@H]3c4ccc(O)cc4CC[C@H]3[C@@H]1CC[C@@H]2O [E2, β-estradiol]
- ACTG2 expression: 3.78 FPKM
- ADCY1 expression: 29.74 FPKM
- AGR3 expression: 24.59 FPKM
- AMZ1 expression: 3.24 FPKM
- ANLN expression: 47.32 FPKM
- ARHGAP36 expression: 3.84 FPKM
- ASCL1 expression: 5.48 FPKM
- ASF1B expression: 78.22 FPKM
- ASMTL-2 expression: 6.46 FPKM
- ATAD2 expression: 69.95 FPKM
- ATRNL1 expression: 0.42 FPKM
- AURKB expression: 43.03 FPKM
- BIRC5 expression: 50.28 FPKM
- BLM expression: 8.02 FPKM
- BMPER expression: 1.39 FPKM
- BRCA1 expression: 9.45 FPKM
- BRCA2 expression: 5.65 FPKM
- BRIP1 expression: 54.99 FPKM
- BUB1B expression: 18.35 FPKM
- C1orf226 expression: 13.05 FPKM
- C5AR2 expression: 3.18 FPKM
- CA2 expression: 184.51 FPKM
- CA12 expression: 52.56 FPKM
- CALCR expression: 6.65 FPKM
- CAV1 expression: 11.53 FPKM
- CCN5 expression: 50.43 FPKM
- CCNA2 expression: 35.91 FPKM
- CCNE2 expression: 17.15 FPKM
- CD99-2 expression: 8.67 FPKM
- CDC6 expression: 16.34 FPKM
- CDC25A expression: 7.21 FPKM
- CDC45 expression: 22.61 FPKM
- CDCA3 expression: 12.59 FPKM
- CDCA4 expression: 35.30 FPKM
- CDCA5 expression: 32.97 FPKM
- CDCA7 expression: 8.46 FPKM
- CDH26 expression: 1.84 FPKM
- CDK1 expression: 34.56 FPKM
- CDT1 expression: 51.94 FPKM
- CENPI expression: 6.53 FPKM
- CENPU expression: 12.95 FPKM
- CHAF1B expression: 5.21 FPKM
- CHEK1 expression: 5.59 FPKM
- CKS1B expression: 97.65 FPKM
- CLSPN expression: 5.95 FPKM
- COL12A1 expression: 4.88 FPKM
- CXCL12 expression: 18.59 FPKM
- DDIAS expression: 9.79 FPKM
- DHRSX-2 expression: 1.19 FPKM
- DKK1 expression: 65.08 FPKM
- DNA2 expression: 7.03 FPKM
- DPYSL5 expression: 1.59 FPKM
- DSCC1 expression: 15.71 FPKM
- DTL expression: 6.96 FPKM
- E2F1 expression: 27.20 FPKM
- E2F2 expression: 5.64 FPKM
- E2F7 expression: 9.64 FPKM
- E2F8 expression: 10.32 FPKM
- ELOVL2 expression: 16.88 FPKM
- EME1 expression: 10.05 FPKM
- ERCC6L expression: 4.70 FPKM
- ESCO2 expression: 7.26 FPKM
- ESPL1 expression: 17.48 FPKM
- EXO1 expression: 10.16 FPKM
- FAM20A expression: 2.20 FPKM
- FAM111B expression: 12.41 FPKM
- FANCA expression: 22.66 FPKM
- FANCD2 expression: 15.48 FPKM
- FANCI expression: 48.65 FPKM
- FEN1 expression: 69.25 FPKM
- FIGNL1 expression: 5.08 FPKM
- FKBP4 expression: 141.57 FPKM
- GATA4 expression: 0.17 FPKM
- GFRA1 expression: 93.16 FPKM
- GINS1 expression: 23.84 FPKM
- GINS2 expression: 36.18 FPKM
- GJA1 expression: 1.09 FPKM
- GLA expression: 91.41 FPKM
- GP1BB expression: 2.96 FPKM
- GPR68 expression: 2.46 FPKM
- GPRIN1 expression: 8.93 FPKM
- GREB1 expression: 60.67 FPKM
- H2AX expression: 195.62 FPKM
- HBB expression: 2.07 FPKM
- HELLS expression: 7.42 FPKM
- HEY2 expression: 5.27 FPKM
- HMGB2 expression: 247.66 FPKM
- IGFBP4 expression: 131.73 FPKM
- IGSF1 expression: 11.09 FPKM
- ITGA2B expression: 1.22 FPKM
- KIF11 expression: 25.57 FPKM
- KIF18B expression: 9.55 FPKM
- KIFC1 expression: 32.81 FPKM
- KLK11 expression: 14.79 FPKM
- KNL1 expression: 7.74 FPKM
- KNTC1 expression: 15.58 FPKM
- LHX2 expression: 3.63 FPKM
- LIG1 expression: 50.95 FPKM
- LMNB1 expression: 103.66 FPKM
- MAD2L1 expression: 15.82 FPKM
- MCM2 expression: 79.68 FPKM
- MCM3 expression: 73.54 FPKM
- MCM4 expression: 90.54 FPKM
- MCM5 expression: 31.11 FPKM
- MCM6 expression: 49.04 FPKM
- MCM7 expression: 195.09 FPKM
- MCM10 expression: 11.30 FPKM
- MELK expression: 23.52 FPKM
- MKI67 expression: 43.57 FPKM
- MYB expression: 14.56 FPKM
- MYBL1 expression: 7.63 FPKM
- MYBL2 expression: 105.97 FPKM
- NCAPG2 expression: 42.44 FPKM
- NCAPG expression: 16.64 FPKM
- NPY1R expression: 21.66 FPKM
- ORC1 expression: 9.75 FPKM
- ORC6 expression: 17.34 FPKM
- PAQR4 expression: 27.39 FPKM
- PBK expression: 34.81 FPKM
- PCLAF expression: 64.57 FPKM
- PCNA expression: 139.06 FPKM
- PDZK1 expression: 5.01 FPKM
- PGR expression: 8.19 FPKM
- PKIB expression: 60.35 FPKM
- PKMYT1 expression: 41.08 FPKM
- POLA1 expression: 6.08 FPKM
- POLA2 expression: 14.49 FPKM
- POLD1 expression: 24.97 FPKM
- POLE2 expression: 6.15 FPKM
- POLE expression: 25.41 FPKM
- POLQ expression: 6.41 FPKM
- PRIM1 expression: 28.80 FPKM
- PRSS23 expression: 215.68 FPKM
- RAB31 expression: 21.61 FPKM
- RAD51AP1 expression: 13.82 FPKM
- RAD51 expression: 9.69 FPKM
- RAD54L expression: 12.35 FPKM
- RAMP3 expression: 13.53 FPKM
- RAPGEFL1 expression: 7.70 FPKM
- RBL1 expression: 5.83 FPKM
- RECQL4 expression: 32.15 FPKM
- RERG expression: 8.59 FPKM
- RET expression: 10.12 FPKM
- RFC2 expression: 36.71 FPKM
- RFC3 expression: 9.92 FPKM
- RFC4 expression: 27.17 FPKM
- RNASEH2A expression: 63.93 FPKM
- RRM1 expression: 40.40 FPKM
- RRM2 expression: 98.16 FPKM
- RUBCNL expression: 1.40 FPKM
- SDK2 expression: 1.00 FPKM
- SFXN2 expression: 31.80 FPKM
- SHCBP1 expression: 7.21 FPKM
- SKA3 expression: 14.05 FPKM
- SLC6A14 expression: 33.54 FPKM
- SMC2 expression: 14.75 FPKM
- SPC24 expression: 17.07 FPKM
- SPC25 expression: 16.49 FPKM
- STC2 expression: 134.11 FPKM
- TACC3 expression: 40.66 FPKM
- TCF19 expression: 21.19 FPKM
- TCOF1 expression: 21.81 FPKM
- TGM2 expression: 1.78 FPKM
- TICRR expression: 10.96 FPKM
- TK1 expression: 126.85 FPKM
- TMEM26 expression: 4.29 FPKM
- TMEM164 expression: 18.93 FPKM
- TONSL expression: 21.56 FPKM
- TOP2A expression: 69.34 FPKM
- TP73 expression: 3.93 FPKM
- TRIP13 expression: 21.48 FPKM
- TUBA1B expression: 1112.26 FPKM
- TUBB expression: 568.06 FPKM
- TYMS expression: 74.96 FPKM
- UBE2C expression: 67.26 FPKM
- UBE2T expression: 108.61 FPKM
- UHRF1 expression: 26.62 FPKM
- UNG expression: 64.43 FPKM
- WDHD1 expression: 10.21 FPKM
- WDR62 expression: 15.52 FPKM
- WDR76 expression: 5.46 FPKM
- XRCC2 expression: 7.64 FPKM
- XRCC3 expression: 19.64 FPKM
- ZGRF1 expression: 3.51 FPKM
- ZNF367 expression: 15.85 FPKM
